Columns and labels:
Sphaerotheca fuliginea = assay: Test of examining control effect on Sphaerotheca fuliginea (potted cucumber plants); format: in vivo; details: Podosphaera fuliginea, 336 h; 10% wettable powder adjusted to 125 ppm, 15 ml/pot sprayed on potted cucumber plants one day before spray inoculation; assessed after 14 days in greenhouse; read-out: Determination of control effect (preventive value) on Sphaerotheca fuliginea
Outline: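 Cucumber plants (Sagamihanjiro, 2nd leaf stage) sprayed with 125 ppm compound (from 10% wettable powder), inoculated one day later with S. fuliginea conidia (1.0×10^5 cells/ml); lesion area scored after 14 days in greenhouse. Preventive value vs untreated; ≥60% high, <60% low control.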

Phytophthora infestans = assay: whole plant or invertebrate; format: in vivo; details: in Solanum lycopersicum, 96 h, read-out: Determination of control effect (preventive value)
[1] = test system: Pseudoperonospora cubensis; assay: Test of examining control effect on Pseudoperonospora cubensis (potted cucumber plants); format: in vivo; details: 96 h, 10% wettable powder adjusted to 125 ppm, 15 ml/pot sprayed on potted cucumber plants one day before spray inoculation, assessed after 1 day wet chamber and 3 days greenhouse, read-out: Determination of control effect (preventive value) on Pseudoperonospora cubensis
Outline: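 Cucumber plants (Sagamihanjiro, 2.5-leaf stage) sprayed with 125 ppm compound solution from 10% wettable powder, 15 ml/pot. One day later, spray-inoculated with P. cubensis conidia (1.0×10^4 cells/ml), kept 1 day at 21° C wet, then 3 days in greenhouse. Preventive value derived from lesion area relative to untreated plants.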

Tetranychus urticae eggs = assay: Test of examining effect on Tetranychus urticae eggs (ovicidal rate); format: in vivo; details: 144 h, 0.4 ml sprayed, unhatched eggs counted six days later, read-out: Determination (ovicidal rate)
Experimental: Thereafter, the released female adults were removed. […] Six days later, the number of unhatched eggs was counted, and an ovicidal rate was calculated.

Compound | pest or weed control at 125 µg/mL (Sphaerotheca fuliginea) [%] | pest or weed control at 125 ppm (Phytophthora infestans) [%] | pest or weed control at 125 µg/mL [1] [%] | pest or weed control at 250 ppm (Tetranychus urticae eggs) [%] | melting point [°C]
CC(CC#Cc1ccc(F)cc1C(F)(F)F)Nc1ncnc2ccccc12 (centres unmarked) [compound 286] | 60 to 100 | 60 to 100 | 60 to 100 | 80 to 95 | –
CC(CC#Cc1ccc(F)cc1C(F)(F)F)Nc1ncnc2sccc12 (centres unmarked) [compound 249] | 60 to 100 | 60 to 100 | 60 to 100 | ≥ 95 | –
CC(CC#Cc1ccc(Cl)cc1)Nc1ncnc2sccc12 (centres unmarked) [compound 232] | 60 to 100 | 60 to 100 | 60 to 100 | 80 to 95 | –
CC(CC#Cc1ccc(Cl)cc1C(F)(F)F)Nc1ncnc2cccc(Cl)c12 (centres unmarked) [compound 350] | 60 to 100 | 0 to 60 | 60 to 100 | ≥ 95 | –
Fc1cc2ncnc(NCCC#Cc3ccc(Cl)cc3C(F)(F)F)c2cc1F [compound 355] | 60 to 100 | 60 to 100 | 60 to 100 | ≥ 95 | –
CC(CC#Cc1ccc(C(F)(F)F)cc1F)Nc1ncnc2ccccc12 (centres unmarked) [compound 288] | 60 to 100 | 0 to 60 | 60 to 100 | ≥ 95 | –
CC(CC#Cc1ccc(S(F)(F)(F)(F)F)cc1)Nc1ncnc2sccc12 (centres unmarked) [compound 238] | 60 to 100 | 60 to 100 | 60 to 100 | ≥ 95 | –
Cc1cc(F)ccc1C#CCC(C)Nc1ncnc2sccc12 (centres unmarked) [compound 246] | 60 to 100 | 60 to 100 | 60 to 100 | 80 to 95 | –
CC(F)c1ncnc(NCCC#Cc2ccccc2)c1Cl (centres unmarked) [compound 376] | 60 to 100 | 60 to 100 | 60 to 100 | ≥ 95 | –
CC(CC#Cc1ccc(C(F)(F)F)cc1Cl)Nc1ncnc2sccc12 (centres unmarked) [compound 257] | 60 to 100 | 60 to 100 | 60 to 100 | 80 to 95 | –
CCCCC(CC#Cc1ccccc1)Nc1ncnc2sccc12 (centres unmarked) [compound 269] | 60 to 100 | 0 to 60 | 60 to 100 | 60 to 80 | –
CC(CC#Cc1ccc(C(F)(F)F)cc1)Nc1ncnc2sccc12 (centres unmarked) [compound 235] | 60 to 100 | 60 to 100 | 60 to 100 | ≥ 95 | –
CC(CC#Cc1ccc(Cl)cc1CO)Nc1ncnc2sccc12 (centres unmarked) [compound 245] | 60 to 100 | 60 to 100 | 60 to 100 | 80 to 95 | –
Cc1ccccc1C#CCC(C)Nc1ncnc2sccc12 (centres unmarked) [compound 239] | 60 to 100 | 60 to 100 | 60 to 100 | 80 to 95 | –
Clc1ccc(C#CCCNc2ncnc3sccc23)cc1 [compound 16] | 60 to 100 | 0 to 60 | 60 to 100 | 60 to 80 | –
CC(CC#Cc1ccccc1C(F)(F)F)Nc1ncnc2sccc12 (centres unmarked) [compound 233] | 60 to 100 | 60 to 100 | 60 to 100 | 80 to 95 | –
CC(C)(C)c1ccc(C#CCCNc2ncnc3sccc23)cc1 [compound 20] | 60 to 100 | 0 to 60 | 60 to 100 | 60 to 80 | –
CC(CC#Cc1ccc(F)cc1Cl)Nc1ncnc2sccc12 (centres unmarked) [compound 247] | 60 to 100 | 60 to 100 | 60 to 100 | 60 to 80 | –
CC(CC#Cc1ccc(S(F)(F)(F)(F)F)cc1Cl)Nc1ncnc2ccccc12 (centres unmarked) [compound 283] | 60 to 100 | 60 to 100 | 60 to 100 | 60 to 80 | –
C(#Cc1ccc(C2CCCCC2)cc1)CCNc1ncnc2ccccc12 [compound 109] | 60 to 100 | 0 to 60 | 60 to 100 | 80 to 95 | –
CC(CC#Cc1ccc(S(F)(F)(F)(F)F)cc1)Nc1ncnc2ccccc12 (centres unmarked) [compound 277] | 60 to 100 | 0 to 60 | 60 to 100 | ≥ 95 | –

Compound | pest or weed control at 125 µg/mL (Sphaerotheca fuliginea) [%] | pest or weed control at 125 ppm (Phytophthora infestans) [%] | pest or weed control at 125 µg/mL [1] [%] | pest or weed control at 250 ppm (Tetranychus urticae eggs) [%] | melting point [°C]
CC(CC#Cc1ccc(S(F)(F)(F)(F)F)cc1Cl)Nc1ncnc2sccc12 (centres unmarked) [compound 253] | 60 to 100 | 0 to 60 | 60 to 100 | 60 to 80 | –
CCC(CC#Cc1ccccc1)Nc1ncnc2sccc12 (centres unmarked) [compound 267] | 60 to 100 | 0 to 60 | 60 to 100 | 60 to 80 | –
CC(CC#Cc1ccc(Cl)cc1C(F)(F)F)Nc1ncnc2sccc12 (centres unmarked) [compound 258] | 60 to 100 | 60 to 100 | 60 to 100 | 60 to 80 | –
CC(CC#Cc1ccc(C(C)C)cc1)Nc1ncnc2sccc12 (centres unmarked) [compound 241] | 60 to 100 | 60 to 100 | 60 to 100 | ≥ 95 | –
CC(CC#Cc1ccccc1Cl)Nc1ncnc2sccc12 (centres unmarked) [compound 231] | 60 to 100 | 60 to 100 | 60 to 100 | 60 to 80 | –
FC(F)=Cc1ccc(C#CCCNc2ncnc3ccccc23)cc1 [compound 113] | 60 to 100 | 0 to 60 | 60 to 100 | ≥ 95 | –
CC(CC#Cc1ccc(Cl)cc1C(F)(F)F)Nc1ncnc2ccccc12 (centres unmarked) [compound 285] | 60 to 100 | 60 to 100 | 60 to 100 | ≥ 95 | –
CC(CC#Cc1ccc(C(C)C)cc1C(F)(F)F)Nc1ncnc2ccccc12 (centres unmarked) [compound 289] | 60 to 100 | 0 to 60 | 60 to 100 | ≥ 95 | –
CC(F)c1ncnc(NCCC#Cc2ccc(Cl)cc2C(F)(F)F)c1Cl (centres unmarked) [compound 377] | 60 to 100 | 0 to 60 | 60 to 100 | ≥ 95 | –
CC(CC#Cc1c(Cl)cc(C(F)(F)F)cc1Cl)Nc1ncnc2sccc12 (centres unmarked) [compound 262] | 60 to 100 | – | 60 to 100 | ≥ 95 | –
COc1cccc(C#CCCNc2ncnc3sccc23)c1 [compound 22] | 60 to 100 | 0 to 60 | 60 to 100 | 60 to 80 | –
CC(CC#Cc1cc(F)ccc1C(F)(F)F)Nc1ncnc2sccc12 (centres unmarked) [compound 248] | 60 to 100 | 0 to 60 | 60 to 100 | 60 to 80 | –
Cc1c(Cl)ncnc1NCCC#Cc1ccccc1 [compound 356] | 60 to 100 | 60 to 100 | 60 to 100 | 80 to 95 | –
Cc1ccc(C#CCCNc2ncnc3sccc23)cc1 [compound 19] | 60 to 100 | 0 to 60 | 60 to 100 | 60 to 80 | –
C(#Cc1ccccc1)CCNc1ncnc2sccc12 [compound 10, 4-(4-Phenyl-3-butynylamino)thieno[2,3-d]pyrimidine] | 60 to 100 | 60 to 100 | 60 to 100 | 60 to 80 | –
CCc1ccc(C#CCC(C)Nc2ncnc3sccc23)cc1 (centres unmarked) [compound 240] | – | 60 to 100 | 60 to 100 | 60 to 80 | –
CC(C)[Si](C#CCCNc1ncnc2sccc12)(C(C)C)C(C)C [compound 4] | 0 to 60 | 0 to 60 | 0 to 60 | – | 196 to 198
N#Cc1c(F)cccc1C#CCCNc1ncnc2ccccc12 [compound 165] | 60 to 100 | 0 to 60 | 60 to 100 | – | 163 to 164
OCc1ccc(C#CCCNc2ncnc3ccccc23)cc1 [compound 132] | 0 to 60 | 0 to 60 | 60 to 100 | – | 69 to 71
O=[N+]([O-])c1ccccc1C#CCCNc1ncnc2sccc12 [compound 38] | – | 60 to 100 | 60 to 100 | 60 to 80 | –
